Experimental findings from US11173142B2, “Cancer treatment composition” (BOTANICAL RESOURCE HOLDINGS (PROPRIETARY) LIMITED, priority 2015, dated 2021) are described below.

Series [1] relates to breast epithelial carcinoma cells (MCF-7). Nature of the series: XTT viability assay, breast epithelial carcinoma cells, 24-hour treatment with isolates. The series is classed as cell-based. Particulars: 24 hour incubation, FIG. 4; for effect on viability of cancer cells: 3 concentrations per component around 0.5, 1 and 2 ug/ml respectively. On the procedure: (§1) To calculate doses, the concentrations of the specific components for serving sizes of 15 mg, 30 mg and 60 mg per person per day for Δ7 mesembrenone, mesembrenone and non-alkaloids respectively were expressed as a fraction of total body fluid volume. In an attempt to account for digestive losses, these concentrations were halved, to reach cell-culture “equivalent” doses of 0.5 ug/ml, 1 ug/ml and 2 ug/ml respectively. Following standard laboratory practice, a range of doses around these was assessed. For clarity, only 3 concentrations per component are presented (doses of 10-fold smaller were also tested for ail components, but were not different from lowest doses presented herein and thus omitted).
(§2) Briefly, the procedure itself entailed 24-hour treatment of confluent cell culture samples of normal breast epithelial cells (MCF-12A) and breast epithelial carcinoma cells (MCF-7) with varying doses of the test products. At the end of this period, the mitochondrial viability of cells was assessed using the XTT assay method. Viability was measured and expressed relative to an appropriate control.
Results are illustrated in FIG. 4 of the accompanying drawings. Results are expressed as the percentage of viable cells after a 24 hour incubation with the test substances. Bars are means of repeated experiments (a minimum of 3 repeat experiments in triplicate) and error bars indicate standard deviations from the mean. Asterisk (*) indicate significant reductions in cancer cell viability.
In general terms: Tetrazolium assays rely on reduction of a dye to a coloured formazan, in cell work by metabolically active cells.

Series [2] deals with normal breast epithelial cells (MCF-12A). Nature of the series: XTT viability assay, normal breast epithelial cells, 24-hour treatment with isolates. Particulars: 24 hour incubation, highest dose assessed, FIG. 4. The series is classed as cell-based. The procedure: as §1, §2
Results are illustrated in FIG. 4 of the accompanying drawings. Results are expressed as the percentage of viable cells after a 24 hour incubation with the test substances. […]

For `COc1ccc([C@@]23C=CC(=O)C[C@@H]2N(C)CC3)cc1OC` [mesembrenone], the “effect on viability of cancer cells” value in series [1] is given as “clear dose-response effects”. Besides, the “effect on normal cell survival” value in series [2] was “seemed to limit growth of normal cells to some extent”.

For the compound `COc1ccc(C23CCC(=O)C=C2N(C)CC3)cc1OC` (centres unmarked) [Δ7 mesembrenone], the “effect on viability of cancer cells” value in series [1] is reported as “clear dose-response effects”. Moreover, the “anti-cancer effect compared with the other isolates” value in series [1] (Δ7 mesembrenone dosed 50% less than mesembrenone) is listed as “most potent anti-cancer effect”. Moreover, the “effect on normal cell survival” value in series [2] is given as “not affecting normal cell survival”.
